From patent publication US10736883B2, “Triazole furan compounds as agonists of the APJ receptor” (AMGEN INC., priority 2016, dated 2020) come the findings set out here.

Chain of APJ receptor (P35414 whole entry): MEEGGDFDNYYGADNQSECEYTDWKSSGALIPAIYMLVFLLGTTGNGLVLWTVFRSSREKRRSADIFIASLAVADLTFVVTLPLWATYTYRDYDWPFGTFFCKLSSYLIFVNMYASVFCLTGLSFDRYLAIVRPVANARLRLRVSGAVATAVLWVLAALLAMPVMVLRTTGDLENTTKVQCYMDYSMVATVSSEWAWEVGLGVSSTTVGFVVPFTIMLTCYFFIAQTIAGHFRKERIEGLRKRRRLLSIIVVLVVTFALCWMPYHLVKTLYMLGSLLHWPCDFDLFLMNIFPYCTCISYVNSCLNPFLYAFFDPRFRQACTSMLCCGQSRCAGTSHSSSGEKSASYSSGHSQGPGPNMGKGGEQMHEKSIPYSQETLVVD

For the experiment, the target named is APJ receptor (Homo sapiens (Human), UniProt P35414). Briefly: [35S]GTPγS binding assay on membranes from CHO cells stably expressing human APJ receptor. Format: biochemical. To be noted: membranes of CHO cells stably expressing human APJ receptor, means of several independent experiments, read-out: Activity hAPJ SPA EC50 IP. On the procedure:
The human APJ receptor was cloned by polymerase chain reaction and the gene encoding the receptor was subcloned in pFLAG-CMV™-3 expression vector (Sigma, Saint Louis, Mo. USA) in-house at Amgen. A GTPγS binding assay was performed on membranes prepared from CHO cells stably expressing human APJ receptor. The optimum experimental conditions for the concentrations of GDP, MgCl2, and NaCl in the assay buffer were initially determined. The assay was performed in assay buffer [20 mM HEPES, pH 7.5, 5 mM MgCl2, and 0.1% (w/v) BSA with 200 mM NaCl, 3 μM GDP] and membranes expressing human APJ receptor/well along with WGA PS beads. The reaction was initiated by addition of 0.2 nM [^35S]GTPγS (Perkin Elmer Life and Analytical Sciences, Waltham USA) in the absence or presence of various ligands and incubated at RT for 90 min. Nonspecific binding was determined in the presence of 100 μM GTPγS and was always less than 0.2% of total binding. All the results presented are means of several independent experiments and analyzed by non-linear regression methods using commercially available program Prism (GraphPad, San Diego, Calif.) to obtain EC50 detailed in Table 26.
As a reminder, the EC50 is the concentration at which the effect is half-maximal. On to `COc1cccc(OC)c1-n1c(NS(=O)(=O)[C@@H]2CCCN(C(=O)N(C)C)C2)nnc1-c1ccco1.COc1cccc(OC)c1-n1c(NS(=O)(=O)[C@H]2CCCN(C(=O)N(C)C)C2)nnc1-c1ccco1` (mixture of isomers) [Example 338.0, (R)-3-(N-(4-(2,6-Dimethoxyphenyl)-5-(furan-2-yl)-4H-1,2,4-triazol-3-yl)sulfamoyl)-N,N-dimethylpiperidine-1-carboxamide and (S)-3-(N-(4-(2,6-dimethoxyphenyl)-5-(furan-2-yl)-4H-1,2,4-triazol-3-yl)sulfamoyl)-N,N-dimethylpiperidine-1-carboxamide], for which the EC50 was found to be 19 nM. Under `COc1cccc(OC)c1-n1c(NS(=O)(=O)[C@@H](C)Cc2ncc(Cl)cc2NC(C)=O)nnc1-c1ccco1` (racemic) [Example 13.0, N-(5-chloro-2-((2S)-2-((4-(2,6-dimethoxyphenyl)-5-(2-furanyl)-4H-1,2,4-triazol-3-yl)sulfamoyl)propyl)-3-pyridinyl)acetamide and N-(5-chloro-2-((2R)-2-((4-(2,6-dimethoxyphenyl)-5-(2-furanyl)-4H-1,2,4-triazol-3-yl)sulfamoyl)propyl)-3-pyridinyl)acetamide] stands 0.19 nM. Take `COc1cccc(OC)c1-n1c(NS(=O)(=O)[C@@H](C)Cc2ccc(Cl)cn2)nnc1-c1ccco1` (racemic) [Example 14.0, (2R)-1-(5-chloro-2-pyridinyl)-N-(4-(2,6-dimethoxyphenyl)-5-(2-furanyl)-4H-1,2,4-triazol-3-yl)-2-propanesulfonamide and (2S)-1-(5-chloro-2-pyridinyl)-N-(4-(2,6-dimethoxyphenyl)-5-(2-furanyl)-4H-1,2,4-triazol-3-yl)-2-propanesulfonamide]: the EC50 was 0.2 nM. On to `COc1cccc(OC)c1-n1c(NS(=O)(=O)[C@H](C)Cc2ncc(F)cc2NC(C)=O)nnc1-c1ccco1` (racemic) [Example 28.0, N-(2-((2R)-2-((4-(2,6-dimethoxyphenyl)-5-(2-furanyl)-4H-1,2,4-triazol-3-yl)sulfamoyl)propyl)-5-fluoro-3-pyridinyl)acetamide and N-(2-((2S)-2-((4-(2,6-dimethoxyphenyl)-5-(2-furanyl)-4H-1,2,4-triazol-3-yl)sulfamoyl)propyl)-5-fluoro-3-pyridinyl)acetamide], for which the EC50 turned out to be 0.48 nM. With `COCC[C@@H]([C@H](C)c1ncc(F)cn1)S(=O)(=O)Nc1nnc(-c2ccc(C)o2)n1-c1c(OC)cccc1OC` (racemic) [Example 74.0] the figure was 0.54 nM. Under `COCC[C@@H](Cc1ncc(C)cn1)S(=O)(=O)Nc1nnc(-c2ccc(C)o2)n1-c1c(OC)cccc1OC` (racemic) [Example 76.0, (2R)—N-(4-(2,6-dimethoxyphenyl)-5-(5-methyl-2-furanyl)-4H-1,2,4-triazol-3-yl)-4-methoxy-1-(5-methyl-2-pyrimidinyl)-2-butanesulfonamide and (2S)—N-(4-(2,6-dimethoxyphenyl)-5-(5-methyl-2-furanyl)-4H-1,2,4-triazol-3-yl)-4-methoxy-1-(5-methyl-2-pyrimidinyl)-2-butanesulfonamide] stands 0.6 nM. Under `COc1cccc(OC)c1-n1c(NS(=O)(=O)[C@@H](CCO)[C@H](C)c2ncc(C)cn2)nnc1-c1ccc(C)o1` (racemic) [Example 77.0] stands 0.77 nM. Turning to `COc1cccc(OC)c1-n1c(NS(=O)(=O)[C@H](C)[C@H](O)c2oc(C)nc2C)nnc1-c1ccc(C)o1` (racemic) [Example 82.0], the EC50 came out at 18 nM. Turning to `COc1cccc(OC)c1-n1c(NS(=O)(=O)[C@H](C)[C@@H](O)c2ccc(C#N)c(C)n2)nnc1-c1ccc(C)o1` (racemic) [Example 88.0], the EC50 amounted to 0.51 nM. With `COc1cccc(OC)c1-n1c(NS(=O)(=O)[C@@H](C)Cc2ncc(F)cn2)nnc1-c1ccc(C)o1` (racemic) [Example 94.0, (2S)—N-(4-(2,6-Dimethoxyphenyl)-5-(5-methyl-2-furanyl)-4H-1,2,4-triazol-3-yl)-1-(5-fluoro-2-pyrimidinyl)-2-propanesulfonamide and (2R)—N-(4-(2,6-dimethoxyphenyl)-5-(5-methyl-2-furanyl)-4H-1,2,4-triazol-3-yl)-1-(5-fluoro-2-pyrimidinyl)-2-propanesulfonamide] the figure was 0.17 nM; with `COc1cccc(OC)c1-n1c(NS(=O)(=O)[C@H](C)[C@@H](O)c2ncc(F)cn2)nnc1-c1ccc(C)o1` (racemic) [Example 96.0, (1R,2S)—N-(4-(2,6-Dimethoxyphenyl)-5-(5-methyl-2-furanyl)-4H-1,2,4-triazol-3-yl)-1-(5-fluoro-2-pyrimidinyl)-1-hydroxy-2-propanesulfonamide and (1S,2R)—N-(4-(2,6-dimethoxyphenyl)-5-(5-methyl-2-furanyl)-4H-1,2,4-triazol-3-yl)-1-(5-fluoro-2-pyrimidinyl)-1-hydroxy-2-propanesulfonamide], 0.34 nM. With `COc1cccc(OC)c1-n1c(NS(=O)(=O)C[C@@H](C)c2ncc(F)cn2)nnc1-c1ccc(C)o1` (racemic) [Example 127.0, (S)—N-(4-(2,6-Dimethoxyphenyl)-5-(5-methylfuran-2-yl)-4H-1,2,4-triazol-3-yl)-2-(5-fluoropyrimidin-2-yl)propane-1-sulfonamide and (R)—N-(4-(2,6-dimethoxyphenyl)-5-(5-methylfuran-2-yl)-4H-1,2,4-triazol-3-yl)-2-(5-fluoropyrimidin-2-yl)propane-1-sulfonamide] the figure was 0.65 nM; with `COc1cccc(OC)c1-n1c(NS(=O)(=O)[C@@H](C)[C@H](C)c2ncc(F)cn2)nnc1-c1ccc(C)o1` (racemic) [Example 135.0], 16 nM; with `COC[C@@H]1CCCC(=O)N1C[C@H](C)S(=O)(=O)Nc1nnc(-c2ccc(C)o2)n1-c1c(OC)cccc1OC` (racemic) [Example 151.0], 0.24 nM.

`COc1cccc(OC)c1-n1c(NS(=O)(=O)[C@H]2COC[C@@H]2c2ncc(F)cn2)nnc1-c1ccco1` (racemic) [Example 180.0, (3R,4S)—N-(4-(2,6-Dimethoxyphenyl)-5-(2-furanyl)-4H-1,2,4-triazol-3-yl)-4-(5-fluoro-2-pyrimidinyl)tetrahydro-3-furansulfonamide and (3S,4R)—N-(4-(2,6-dimethoxyphenyl)-5-(2-furanyl)-4H-1,2,4-triazol-3-yl)-4-(5-fluoro-2-pyrimidinyl)tetrahydro-3-furansulfonamide]: the 50% effective concentration (EC50) amounted to 3.6 nM. Under `COc1cccc(OC)c1-n1c(NS(=O)(=O)[C@H]2COc3cc(Cl)cnc3C2)nnc1-c1ccco1` (racemic) [Example 181.0, (3R)-7-Chloro-N-(4-(2,6-dimethoxyphenyl)-5-(2-furanyl)-4H-1,2,4-triazol-3-yl)-3,4-dihydro-2H-pyrano[3,2-b]pyridine-3-sulfonamide and (3S)-7-chloro-N-(4-(2,6-dimethoxyphenyl)-5-(2-furanyl)-4H-1,2,4-triazol-3-yl)-3,4-dihydro-2H-pyrano[3,2-b]pyridine-3-sulfonamide] stands 5.9 nM; under `COc1cccc(OC)c1-n1c(NS(=O)(=O)[C@@H](C)[C@@H](C)c2ncc(F)cn2)nnc1-c1ccco1` (racemic) [Example 218.0, (2R,3R)—N-(4-(2,6-dimethoxyphenyl)-5-(2-furanyl)-4H-1,2,4-triazol-3-yl)-3-(5-fluoro-2-pyrimidinyl)-2-butanesulfonamide and (2S,3S)—N-(4-(2,6-dimethoxyphenyl)-5-(2-furanyl)-4H-1,2,4-triazol-3-yl)-3-(5-fluoro-2-pyrimidinyl)-2-butanesulfonamide], 0.25 nM. As for `COc1cccc(OC)c1-n1c(NS(=O)(=O)C[C@@](C)(F)c2ncc(C#N)cn2)nnc1-c1ccc(C)o1` (racemic) [Example 229.0, (2S)-2-(5-Cyano-2-pyrimidinyl)-N-(4-(2,6-dimethoxyphenyl)-5-(5-methyl-2-furanyl)-4H-1,2,4-triazol-3-yl)-2-fluoro-1-propanesulfonamide and (2R)-2-(5-cyano-2-pyrimidinyl)-N-(4-(2,6-dimethoxyphenyl)-5-(5-methyl-2-furanyl)-4H-1,2,4-triazol-3-yl)-2-fluoro-1-propanesulfonamide], the half-maximal effective concentration (EC50) is 0.39 nM. For the compound `COc1cccc(OC)c1-n1c(NS(=O)(=O)[C@@H](C)Cc2ncc(F)c(C)n2)nnc1-c1ccco1` (racemic) [Example 234.0, (2S)—N-(4-(2,6-Dimethoxyphenyl)-5-(2-furanyl)-4H-1,2,4-triazol-3-yl)-1-(5-fluoro-4-methyl-2-pyrimidinyl)-2-propanesulfonamide and (2R)—N-(4-(2,6-dimethoxyphenyl)-5-(2-furanyl)-4H-1,2,4-triazol-3-yl)-1-(5-fluoro-4-methyl-2-pyrimidinyl)-2-propanesulfonamide], the EC50 came to 0.54 nM. With `COc1cccc(OC)c1-n1c(NS(=O)(=O)[C@H](C)[C@@H](OC)c2cn3ccccc3n2)nnc1-c1ccc(C)o1` (racemic) [Example 264.0, (1R,2S)—N-(4-(2,6-Dimethoxyphenyl)-5-(5-methyl-2-furanyl)-4H-1,2,4-triazol-3-yl)-1-imidazo[1,2-a]pyridin-2-yl-1-methoxy-2-propanesulfonamide and (1S,2R)—N-(4-(2,6-dimethoxyphenyl)-5-(5-methyl-2-furanyl)-4H-1,2,4-triazol-3-yl)-1-imidazo[1,2-a]pyridin-2-yl-1-methoxy-2-propanesulfonamide] the figure was 0.167 nM.
